Read-outs that look alike come from different tables or passages of the source.
Assays:
[1] = Heat generation after soaking in de-ionized water; assay type: physicochemical; details: 0.73 grams added to 7.0 grams de-ionized water, no protective layer; FIG. 6
Method: Four samples of the calcium chloride particles including a moisture protective layer were then analyzed for their ability to generate heat after exposure to water. A control sample (calcium chloride) was also tested for heat generating capabilities and compared to the four samples of calcium chloride having a moisture protective layer.
To analyze the samples for heat generation, 0.80 grams of each sample of calcium chloride including a moisture protective layer was added to four separate vials each containing 7.0 grams of de-ionized water and 0.73 grams of the control sample was added to a fifth vial containing 7.0 grams of de-ionized water. Using a J type thermocouple (commercially available from Omega Engineering, Inc., Stamford, Conn.) and a data logger, the temperature of the samples was measured over a period of 180 seconds. The four vials containing the samples of microencapsulated heat delivery vehicle including a moisture protective layer were allowed to remain in the de-ionized water for 0.5 hours, 1.0 hour, 1.5 hours, and 2.0 hours, respectively, at which time the samples were activated by crushing the samples by hand using a metal rod. The temperature of the water in the four vials was measured for a period of 180 seconds after crushing the samples.

[2] = particle size less than 250 micrometers, compared with three other size ranges; 35 wt % in mineral oil added to 7.0 grams de-ionized water; FIG. 4
Method: In this example, samples incorporating various size ranges of anhydrous magnesium chloride suspended in mineral oil at 35 wt % were evaluated for their ability to generate heat upon introduction into water.
The four size ranges of anhydrous magnesium chloride evaluated were: (1) 1000-1500 microns; (2) 600-1000 microns; (3) 250-600 microns; and (4) less than 250 microns. To produce the samples of anhydrous magnesium chloride in mineral oil, the various size ranges of anhydrous magnesium chloride powder (Magnesium Interface Inc. (Vancouver, B.C., Canada) were suspended at 35 wt % in mineral oil (available as Drakeol 7 LT NF from Penreco, Dickinson, Tex.). To produce the samples having anhydrous magnesium chloride with size ranges of 1000-1500 microns, 600-1000 microns, and 250-600 microns, the as received anhydrous magnesium chloride powder was hand screened into the size ranges desired and the powders collected. These powders were suspended at 35 wt % in mineral oil using a cowles mixing blade. […]
All four samples were then added to 7.0 grams de-ionized water and the resulting temperature rise was measured using a J type Thermocouple (available from Omega Engineering, Inc., Stamford, Conn.).

[3] = tested on: Staphylococcus aureus; assay: Biocidal efficacy of magnesium chloride in combination with PHMB, total plate count; assay type: cell-based; details: 15-minute contact time
Method: A 1.5-milliliter tube was prepared using magnesium chloride in water.
Two control samples were also prepared. One control sample was filled with 0.850 milliliters magnesium chloride. A second control sample was prepared by introducing 0.850 milliliters sterile water.
The tubes were then vortexed until an increase in temperature was observed.
0.05 milliliters of 1×10^7 CFU/milliliter culture of Staphylococcus aureus was added to each tube. After a 15-minute contact time, 0.1 milliliters of each tube was transferred into 0.9 milliliters letheen broth. To the broth, 10 milligrams/milliliter sodium thiosulfate was also added. The tubes were again vortexed. After vortexing, 0.1 milliliters of each tube was plated on Tryptic soy agar plates. The plates were inverted and incubated at 37° C. for 24 hours. An inoculum control plate was also plated to determine the concentration of the inoculum
After 24 hours, the plates were evaluated using a total plate count to determine the biocidal efficacy of each sample.

[4] = particle size 149-355 micrometers, compared with four other size ranges; 35 wt % in mineral oil added to 7.0 grams de-ionized water; FIG. 3
Method: In this example, samples incorporating various size ranges of anhydrous calcium chloride suspended in mineral oil at 35 wt % were evaluated for their ability to generate heat upon introduction into water.
The five size ranges of anhydrous calcium chloride evaluated were: (1) less than 149 microns; (2) 149-355 microns; (3) 710-1190 microns; (4) 1190-2000 microns; and (5) 2000-4000 microns. The samples of anhydrous calcium chloride (Dow Chemical, Midland, Mich.) were dispersed in mineral oil (available as Drakeol 7 LT NF from Penreco, Dickinson, Tex.). The as received anhydrous calcium chloride were screened dry using a Gilson Sonic Sieve (Gilson Company, Inc. Columbus, Ohio) to create two sizes, a 1190-2000 micron size and a 2000-4000 micron size. These powders were then suspended at 35 wt % in mineral oil to form a slurry using a cowles mixing blade. To achieve the smaller size distributions, the anhydrous calcium chloride powder required further processing. […]
All five samples were then individually added to 7.0 grams de-ionized water and the resulting temperature rise was measured using a Barnant Scanning Thermocouple (available from Therm-X of California, Hayward, Calif.).

[5] = tested on: Methicillin-resistant Staphylococcus aureus; details: for LOG10 Reduction: 0.005% PHMB vs no PHMB; for LOG10 Reduction / Total CFU Recovered MRSA: 10-minute contact time; for Total CFU Recovered MRSA: 0.005% PHMB, 5% bovine serum albumin soil, n = 2
Method: This Example utilized 1.5-milliliter tubes containing a 1-milliliter blend of phosphate-buffered saline (pH 7.2) and 5% (w/v) bovine serum albumin soil. The tubes were placed in electric heat blocks set for 22° C., 30° C., 40° C. and 50° C., respectively. The tubes remained in the electric heat blocks for approximately 10 minutes.
After 10 minutes, 0.005% (by weight) active polyhexamehtylene biguanide (PHMB) (commercially available as Cosmocil® CQ from Arch Biocides, Inc., United Kingdom) was added to two tubes at each temperature level. Duplicate tubes without PHMB at each temperature were also made.
The tubes were then vortexed and Methicillin-resistant Staphylococcus aureus (approximately 1×10^5 colony forming units (CFU)) was then added to each tube. All of the tubes were then placed back into the heat blocks at their respective temperatures.
Following a 10-minute contact time, 0.1 milliliters of each sample was transferred to 0.9 milliliters letheen broth to neutralize the PHMB activity. The letheen samples were then plated in duplicate on Tryptic Soy agar plates using a WASP2 spiral plater (commercially available from Don Whitley Scientific, Ltd., Yorkshire, United Kingdom). The plates were inverted and incubated at 37±2° C. for 48 hours.
After 48 hours, the plates were evaluated using a total plate count to determine the biocidal efficacy of each sample.

With `[Ca+2].[Cl-].[Cl-]` [Example 11 control sample, calcium chloride] the “heat production in water” value [1] was “produced heat immediately upon being introduced into water but only for a short period of time”.

With `[Cl-].[Cl-].[Mg+2]` [Magnesium Chloride, magnesium chloride] the “rate of heat generation” value [2] was “highest rate” and the LOG10 recovered ([3]; PHMB 0%, magnesium chloride 50%) was 1.9 LOG10.

In the case of `[Ca+2].[Cl-].[Cl-]` [anhydrous calcium chloride, calcium chloride], the “rate of heat generation” value [4] is reported as “highest rate”.

In the case of polyhexamethylene biguanide [PHMB], the “difference in efficacy between 22° C. and 50° C.” value ([5]; 0.005% (by weight) active PHMB) is reported as “greater than 1.4 LOG10”, the “LOG10 Reduction” value ([5]; 22° C.) is reported as 2.1 LOG10 and the “Total CFU Recovered MRSA” value ([5]; 22° C.) is reported as 3.5 CFU. The “LOG10 Reduction” value ([5]; 30° C.) was 2.8 LOG10, the “Total CFU Recovered MRSA” value ([5]; 30° C.) was 2.9 CFU and the “LOG10 Reduction” value ([5]; 40° C.) was 3.5 LOG10. For the same compound, the “Total CFU Recovered MRSA” value ([5]; 40° C.) was 2.1 CFU, the “LOG10 Reduction” value ([5]; 50° C.) was over 3.5 LOG10 and the “Total CFU Recovered MRSA” value ([5]; 50° C.) was under 2 CFU. The LOG10 recovered ([3]; PHMB 0.00025%, magnesium chloride 0%) was 4.8 LOG10.

From patent publication US20070145619A1, “Processes for producing microencapsulated delivery vehicles” (Kimberly-Clark Worldwide, Inc., priority 2005, published 2007)
